PMC4136845, “Evaluation of Antimalarial Activity and Toxicity of a New Primaquine Prodrug” (PLoS ONE, 2014)
“And” between values parts separate entries of the source, which are not always exact repeats. Equal entries are not always repeated. “Also recorded” adds a separate entry of the source.

Columns and labels:
male Wistar rats [1] = test: Biochemical analysis of serum of rats treated with multiple doses; settings: rat serum, gavage four times a day for 4 days, PQ diphosphate 2.44 mg/kg free base, Phe-Ala-PQ 9.00 mg/kg, mean
Experimental: (§1) The biochemical, hematological and histopathological analyses were carried out in male Wistar rats (weighing 200–250 g). They were housed in wire cages, five animals per cage, with free access to food and water. The study protocol was approved by The Research Ethics Committee of the School of Pharmaceutical Sciences, UNESP, Araraquara (process 06/2009). […] After treatment with the drugs, the animals were decapitated for collection of blood and samples of liver and kidneys (preserved in 10% formaldehyde).
In biochemical analysis, aspartate aminotransferase (AST), alanine aminotransferase (ALT), gamma-glutamyltransferase (GGT), bilirubin, creatinine and urea kits were purchased from LabTest Diagnostica SA (Lagoa Santa,Minas Gerais, Brazil). Alkaline phosphatase (ALP) was assayed by the conversion of p-nitrophenyl phosphate to p-nitrophenol in a kinetic reaction, measured with a spectrophotometer at 405 nm. To determine the level of methemoglobin in relation to oxyhemoglobin, we used the method described by Naoum and collaborators. The blood was hemolyzed and the hemoglobin stabilized in 60 mM phosphate buffer, pH 6.8. The levels of methemoglobin and oxyhemoglobin were determined by spectrophotometric absorption at 630 and 540 nm. The total and differential white blood cell (WBC) counts were performed using a Neubauer chamber and blood smears, respectively. The hematocrit was determined using conventional method by microcapillary centrifugation.

male Wistar rats [2] = test: Histopathological evaluation of rat liver and kidney; settings: multiple doses
Experimental: as §1
The liver and kidney were removed from each rat to perform the histopathological evaluation. Tissue pieces were fixed in 10% formaldehyde and embedded in paraffin. Each organ was then cut into 4-µm thick sections and subjected to standard hematoxylin/eosin staining. Hepatic glycogen staining in sections was carried out using the standard periodic acid-Schiff (PAS) reaction, followed by hematoxylin counterstaining, and the periportal and centrilobular regions of the liver were analyzed according to Thoolen et al.. Five periportal regions and five centrilobular regions were photographed in each animal, for a total of 300 photographs, and these images were adjusted using Pixelmator software (2.2.1). Nuclear hepatocyte glycogen levels were classified as: A- PAS<50% of cells, B- PAS≥50% of cells and C- PAS-negative. Additionally, liver sections were examined for the occurrence of microvesicular fatty changes, as well as the kidney sections for inflammatory infiltration, reduction of Bowman's spaces and changes in renal tubules. Statistical analysis was performed in Graphpad Prism 5.0b. Data for each organ analysis were expressed qualitatively and quantitatively, and normal distribution was verified (D'Agostin and Person). t-tests and chi-square tests were performed, and non-parametric data were evaluated using the Mann-Whitney or Kruskal-Wallis test for pair wise comparisons of groups. The significance level was set at 5%.

[3] = previous study; cited from earlier work
P. gallinaceum = test: Inhibition of P. gallinaceum sporogony in Aedes fluviatilis mosquitoes fed on infected, treated chickens; assay type: in vivo; settings: for Mean oocyts ±SD/ in times 4 h: chicken, mosquitoes fed 4 h after treatment; for Reduction in oocyst number, % / Sporogony inhibition, %: 4 h vs 0 h
Experimental: One-week-old chicks (Gallus gallus domesticus) previously inoculated with 10^6 RBC infected with P. gallinaceum, had their parasitemia monitoried daily, by examining Giemsa-stained thin blood smears; they were used to feed the mosquitoes when reaching 2.8 – 3.8%. The A. fluviatilis mosquitoes were kept for 24 h without sugar in their diet, to improve their ability to take the blood meal from chickens. For each compound the same infected chicken was offered twice to feed clean mosquitoes (30 female mosquitoes per group), before treatment, (group 0 h). Drug treatment was immediately performed by gavage and the treated chicken was offered again to blood-feed another group of mosquitoes (test group) 4 h after treatment of the chicken with the drug. […] In each experiment, another non-treated P. gallinaceum-infected chick was used twice (time 0 h and 4 h later) to feed clean mosquitoes, serving as an internal control.
Seven days after the blood meal, the mosquitoes were dissected and their midgut was removed under a stereomicroscope (100x), stained with 0.5% mercurochrome, and examined under a light microscope (40x) for the oocyst count. […] Two criteria were used to evaluate drug activity: the total number of infected mosquitoes and the mean number of oocysts, based on the examination of 20 mosquitoes in each group.

[4] = tested on: human hepatoma cell line (HepG2); test: In vitro cytotoxicity, MTT assay, HepG2 cells
Experimental: The HepG2 (ATCC HB-8065) was originally received from the New University of Lisbon, Portugal, and BGM received as a gift from the Federal University of Minas Gerais and originally purchased from Rio de Janeiro Cell Bank (BCRJ 0049). When confluent, the cells were washed with RPMI culture medium, then trypsinized, distributed in a flat-bottom 96-well plate (5×10^3 cells/well), and incubated for 18 h at 37°C for cell adherence as described elsewhere. The compound (20 µL) was added to each well at various concentrations (1-1000 µg/mL) and the plate incubated for 24 h in a 5% CO2 atmosphere at 37°C. MTT [3-(4,5-dimethylthiazol-2-yl)-2,5-diphenyltetrazolium bromide] (5 mg/mL; 20 µL/well) was added to evaluate mitochondrial viability, and the plates were incubated again for 3 h, under the same culture conditions. The supernatant was carefully removed, and 100 µL of DMSO were added with mixing to dissolve the formazan crystals formed. The optical density was determined at 570 and 630 nm (background) (SpectraMax 340PC 384, Molecular Devices). Cell viability was expressed as the percentage of the control absorbance of the untreated cells after subtracting the appropriate background. The minimum lethal dose for 50% of the cells (MLD50) was determined as previously described.

[5] = single oral dose 1.0 mg/kg (Phe-Ala-PQ: 0.19 mg/kg PQ)
[6] = single oral dose 5.0 mg/kg (0.94 mg/kg PQ)
[7] = single oral dose 10 mg/kg (1.9 mg/kg PQ)

## COc1cc(NC(C)CCCNC(=O)[C@H](C)NC(=O)[C@@H](N)Cc2ccccc2)c2ncccc2c1 (stereo partly drawn) [Phe-Ala-PQ, phenylalanine-alanine-primaquine]
Male Wistar rats [1]
  ALP: 93.52 U/L
  ALT: 185.7 ^a, ^b U/L
  AST: 290.6^a, ^b U/L
  Creatinine: 0.529 mg/dL
  Direct bilirubin: 0.147 mg/dL
  GGT: 13.03^a, ^b U/L
  Total bilirubin: 0.711 mg/dL
  Urea: 5.734^a, ^b mg/dL
Male Wistar rats [1]; listed as prodrug
  Urea: 5.734 mg/dL
Male Wistar rats [2]
  Liver glycogen: positive cells (<50%), periportal region: increase
Male Wistar rats [2]; compared to control group
  Liver glycogen: PAS-positive cells (>50%), overall analysis of the liver: more PAS-positive cells (>50%)
Male Wistar rats [2]; compared to the PQ group, listed as prodrug
  Liver cells with fatty microvesicular changes: fewer cells with fatty microvesicular changes; also recorded: lower percentage of cells with fatty microvesicular changes
Male Wistar rats [2]; compared to the control group
  Liver glycogen: PAS-positive cells (total), periportal region: more PAS-positive cells (total) compared to the control group
Male Wistar rats [2]; hematoxylin/eosin
  Histopathological analysis of the kidney: normal structures, with no alteration in the glomeruli and renal tubules
[3]
  oral bioavailability: approximately 50%
P. gallinaceum; [5]
  Mean oocyts ±SD/ in times 4 h: 26±36
  Reduction in oocyst number, %: 0%
  Sporogony inhibition, %: 0%
P. gallinaceum; [6]
  Mean oocyts ±SD/ in times 4 h: 6±6
  Reduction in oocyst number, %: 70%
P. gallinaceum; [7]
  Mean oocyts ±SD/ in times 4 h: 0±0
  Reduction in oocyst number, %: 100%
  Sporogony inhibition, %: 100%
[4]; MTT, 24 h, expressed as PQ equivalents
  MDL50 HepG2, PQ equivalents: 175 µg/mL
[4]; MTT, 24 h incubation
  MDL50 (Mean±SD) HepG2: 920 µg/mL and 920 ± 1 µg/mL
[4]; ratio of MDL50 values
  Toxicity to HepG2 cells compared to PQ: five times less toxic
